Laboratory results from the NIST ThermoML archive (doi:10.1016/j.jct.2011.08.015).

Key:
[1] = for surface tension liquid-gas: Drop volume; for electrical conductivity / viscosity / speed of sound / mass density: 101.33 kPa, Liquid; for electrical conductivity: CRISON model GLP31; for viscosity: Capillary tube (Ostwald / Ubbelohde) method; for speed of sound: Sing-around technique in a fixed-path interferometer; for mass density: Vibrating tube method
[2] = molar heat capacity at constant pressure; settings: 101.33 kPa, Liquid, Small sample (50 mg) DSC
[3] = refractive index (Na D-line) (dimensionless); settings: 101.33 kPa, Liquid, Standard Abbe refractometry

CCC[n+]1ccccc1.F[B-](F)(F)F [1-propylpyridinium tetrafluoroborate]
Settings	electrical conductivity, [1] [S/m]	mass density, [1] [kg/m3]	molar heat capacity at constant pressure, [2] [J/K/mol]	refractive index, [3]	speed of sound, [1] [m/s]	surface tension liquid-gas, [1] [mN/m]	viscosity, [1] [mPa·s]
278.15 K	0.102	1267.63	352	–	1691.9	52.55	461.4
280.65 K	0.123	1265.78	354	–	1685.4	52.35	379.1
283.15 K	0.151	1263.92	355	1.44855	1678.9	52.16	314.2
285.65 K	0.181	1262.06	356	1.44789	1672.5	51.94	262.5
288.15 K	0.215	1260.19	357	1.44723	1666.2	51.72	220.8
290.65 K	0.252	1258.42	359	1.44655	1660	51.53	186.9
293.15 K	0.302	1256.64	361	1.44588	1653.9	51.29	160
295.65 K	0.352	1254.86	362	1.44522	1647.8	51.15	137.7
298.15 K	0.401	1253.08	363	1.44455	1641.7	50.97	119.5
300.65 K	0.456	1251.3	365	1.44389	1635.7	50.73	103.8
303.15 K	0.516	1249.52	366	1.44322	1629.8	50.51	90.75
305.65 K	0.581	1247.73	367	1.44256	1623.8	50.32	79.75
308.15 K	0.649	1245.95	369	1.4419	1618	50.12	70.61
310.65 K	0.722	1244.18	370	1.44123	1612.1	49.93	62.81
313.15 K	0.799	1242.4	372	1.44057	1606.3	49.79	56.02
315.65 K	0.881	1240.63	373	1.4399	1600.5	49.54	50.22
318.15 K	0.965	1238.86	374	1.43924	1594.8	49.41	45.19
320.65 K	1.07	1237.1	376	1.43859	1589	49.21	40.86
323.15 K	1.15	1235.33	377	1.43792	1583.3	49.03	36.99
325.65 K	1.26	1233.58	378	1.43726	1577.6	48.82	33.84
328.15 K	1.37	1231.82	380	1.43659	1572	48.7	30.72
330.65 K	1.48	1230.07	381	1.43593	1566.3	48.46	28.09
333.15 K	1.6	1228.32	383	1.43528	1560.7	48.3	25.81
335.65 K	1.73	1226.57	384	1.43463	1555.1	48.1	23.78
338.15 K	1.87	1224.83	385	1.43398	1549.5	47.86	21.97
